Experimental data published in patent US7803930B2, “Antisense modulation of apolipoprotein B-expression” (Isis Pharmaceuticals, Inc., priority 2002, dated 2010).
In the oligonucleotide strings, read from the 5' end, every base follows the letter of its sugar. An asterisk marks phosphorothioate; unmarked linkages are phosphodiester. Other units and linkages are bracketed, terminal groups are in braces. A string of capitals states the bases alone. e = 2'-O-(2-methoxyethyl) (MOE); [5mC] = 5-methylcytosine; d = 2'-deoxy (DNA)

Experiments:
[1] = test system: PTEN; experiment: ob/ob mice (Example 50): PTEN levels; format: in vivo, mouse; settings: high fat high cholesterol diet, 50 mg/kg i.p. twice a week, six weeks
Protocol: Ob/ob mice receiving a high fat, high cholesterol diet (60% kcal fat supplemented with 0.15% cholesterol) were treated with one of several oligonucleotides to evaluate their effect on apolipoprotein B-related phenotypic endpoints in ob/ob mice. After overnight fasting, mice from each group were dosed intraperitoneally twice a week with 50 mg/kg of ISIS 147483 (SEQ ID NO: 79), or 147764 (SEQ ID NO: 109), or the controls ISIS 116847 (SEQ ID NO: 857), or 141923 (SEQ ID NO: 858), or saline for six weeks. At study termination and forty eight hours after the final injections, animals were sacrificed and evaluated for target mRNA levels in liver, cholesterol and triglyceride levels, liver enzyme levels, serum glucose levels, and PTEN levels.

[2] = High fat fed mice (Example 51): intact oligonucleotide in liver tissue by capillary gel electrophoresis; format: in vivo, mouse; settings: 50 mg/kg i.p. twice weekly
Protocol: In a further embodiment of the invention, the inhibition of apolipoprotein B mRNA in mice was compared to liver oligonucleotide concentration, total cholesterol, LDL-cholesterol and HDL-cholesterol. Male C57Bl/6 mice receiving a high fat diet (60% fat) were evaluated over the course of 6 weeks for the effects of treatment with twice weekly intraperitoneal injections of 50 mg/kg ISIS 147764 (SEQ ID NO: 109) or 50 mg/kg of the control oligonucleotide ISIS 141923 (SEQ ID NO: 858). Control animals received saline treatment. Animals were sacrificed after 2 days, 1, 2, 4 and 6 weeks of treatment. Each treatment group at each time point consisted of 8 mice.
Target expression in liver was measured by real-time PCR as described by other examples herein and is expressed as percent inhibition relative to saline treated mice. Total, LDL- and HDL-cholesterol levels were measured by routine clinical analysis using an Olympus Clinical Analyzer (Olympus America Inc., Melville, N.Y.) and are presented in mg/dL. Results from saline-treated animals are shown for comparison. Intact oligonucleotide in liver tissue was measured by capillary gel electrophoresis and is presented as micrograms of oligonucleotide per gram of tissue.
The oligonucleotide treatments described in this example were duplicated to investigate the extent to which effects of ISIS 147764 persist following cessation of treatment. Mice were treated as described, and sacrificed 1, 2, 4, 6 and 8 weeks following the cessation of oligonucleotide treatment.

[3] = Evaluation of steatosis in high fat fed animals treated for 6 weeks, liver histology; format: in vivo, mouse; settings: high fat fed C57BL/6 mice; 6 weeks of treatment
From the text: Tissue resected from liver is immediately immersed in Tissue Tek OCT embedding compound (Ted Pella, Inc., Redding, Calif.) and frozen in a 2-methyl-butane dry ice slurry. Tissue sections are cut at a thickness of 4-5 μm and then fixed in 5% neutral-buffered formalin. Tissue sections are stained with hematoxylin and eosin following standard histological procedures to visualize nuclei and cytoplasm, respectively, and oil red 0 according to the manufacturer's instructions (Newcomers Supply, Middleton, Wis.) to visualize lipids.
Alternatively, tissues are fixed in 10% neutral-buffered formalin, embedded in paraffin, sectioned at a thickness of 4-5 μm, deparaffinized and stained with hematoxylin and eosin, all according to standard histological procedures.
Liver tissue from ISIS 147764 (SEQ ID NO: 109) and control-treated animals described in Example 21 was evaluated for steatosis at study termination following 6 weeks of treatment. Tissue sections were stained with oil red 0 and hematoxylin to visualize lipids and nuclei, respectively. Tissue sections were also stained with hematoxylin and eosin to visualize nuclei and cytoplasm, respectively.

[4] = test system: apolipoprotein B mRNA; experiment: Lean vs high fat fed C57BL/6 mice (Example 20): target mRNA levels in liver; format: in vivo, mouse; settings: 50 mg/kg i.p. every three days, six weeks
Protocol: Male C57BL/6 mice were divided into two matched groups; (1) wild-type control animals (lean animals) and (2) animals receiving a high fat diet (60% kcal fat). Control animals received saline treatment and were maintained on a normal rodent diet. After overnight fasting, mice from each group were dosed intraperitoneally every three days with saline or 50 mg/kg ISIS 147764 (SEQ ID No: 109) for six weeks. At study termination and forty eight hours after the final injections, animals were sacrificed and evaluated for target mRNA levels in liver, cholesterol and triglyceride levels, liver enzyme levels and serum glucose levels.

[5] = test system: mouse apolipoprotein B mRNA; experiment: High fat fed mice (Example 65): mouse apolipoprotein B mRNA and serum cholesterol levels; format: in vivo
Protocol: Male C57Bl/6 mice were divided into the following groups, consisting of 5 animals each: (1) mice on a lean diet, injected with saline (lean control); (2) mice on a high fat diet; (3) mice on a high fat diet injected with 50 mg/kg of the control oligonucleotide 141923 (SEQ ID NO: 858); (4) mice on a high fat diet given 20 mg/kg atorvastatin calcium (Lipitor®, Pfizer Inc.); (5) mice on a high fat diet injected with 10, 25 or 50 mg/kg ISIS 147764 (SEQ ID NO: 109). Saline and oligonucleotide treatments were administered intraperitoneally twice weekly for 6 weeks. Atorvastatin was administered daily for 6 weeks. At study termination, liver samples were isolated from each animal and RNA was isolated for Northern blot qualitative assessment, DNA microarray and quantitative real-time PCR. Northern blot assessment and quantitative real-time PCR were performed as described by other examples herein.
Mouse apolipoprotein B mRNA and serum cholesterol levels, measured as described herein, were evaluated to confirm antisense inhibition by ISIS 147764 and ISIS 147483. […] The 50 mg/kg dose of ISIS 147483 increased ALT and AST levels.

[6] = test system: human apolipoprotein B mRNA; experiment: Transgenic mice dosing study (Example 52): human apolipoprotein B mRNA in liver; format: in vivo, human transgene in mouse; settings: for % Inhibition, human apolipoprotein B mRNA: liver, 12 weeks
Protocol: A long-term study of inhibition of human apolipoprotein B by ISIS 301012 in C57BL/6NTac-TgN(APOB100) mice (Taconic, Germantown, N.Y.) was conducted for a 3 month period. Mice were dosed intraperitoneally twice a week with 10 or 25 mg/kg ISIS 301012 (SEQ ID No: 247) for 12 weeks. Saline-injected animals served as controls. Each treatment group comprised 4 animals.
The study was terminated forty eight hours after the final injections in the eighth week of treatment, when animals were sacrificed and evaluated for target mRNA levels in liver, apolipoprotein B protein levels in liver and serum cholesterol and liver enzyme levels. In addition, the expression of endogenous mouse apolipoprotein B levels in liver was measured to evaluate any effects of ISIS 301012 on mouse apolipoprotein B mRNA expression.
Human and mouse apolipoprotein B mRNA levels in livers of animals treated for 12 weeks were measured by real-time PCR as described herein. Each result represents the average of data from 4 animals.

147764 (eG*eT*e[5mC]*e[5mC]*e[5mC]*dT*dG*dA*dA*dG*dA*dT*dG*dT*d[5mC]*eA*eA*eT*eG*e[5mC]) [compound 147764]
mRNA % control PTEN [1]: 115.3 % control
Intact oligonucleotide ([2]; high fat fed male C57Bl/6 mice, treatment period 1 week): 121 µg/g
Intact oligonucleotide ([2]; high fat fed male C57Bl/6 mice, treatment period 2 weeks): 194 µg/g
Intact oligonucleotide ([2]; high fat fed male C57Bl/6 mice, treatment period 4 weeks): 340 µg/g
Intact oligonucleotide ([2]; high fat fed male C57Bl/6 mice, treatment period 6 weeks): 586 µg/g
Intact oligonucleotide ([2]; high fat fed male C57Bl/6 mice, treatment period 2 days): 85 µg/g
Intact oligonucleotide ([2]; high fat fed mice, 1 week after cessation of dosing): 215 µg/g
Intact oligonucleotide ([2]; high fat fed mice, 2 weeks after cessation of dosing): 168 µg/g
Intact oligonucleotide ([2]; high fat fed mice, 4 weeks after cessation of dosing): 124 µg/g
Intact oligonucleotide ([2]; high fat fed mice, 6 weeks after cessation of dosing): 70 µg/g
Intact oligonucleotide ([2]; high fat fed mice, 8 weeks after cessation of dosing): 43 µg/g

GTCCCTGAAGATGTCAATGC (2'-MOE gapmer, further chemistry not given here) [ISIS 147764]
steatosis vs saline treated animals (histology) [3]: no difference in steatosis
Percent Change mRNA ([4]; High Fat Group): −87%
Percent Change mRNA ([4]; Lean-control group): −73%
mouse apolipoprotein B mRNA and serum cholesterol levels [5]: lowered in a dose-dependent manner

ISIS 301012: SEQ ID NO: 247, antisense oligonucleotide targeted to human apolipoprotein B (antisense GCCTCAGTCTGCTTCGCACC; chemistry not given here)
reduction of human apolipoprotein B mRNA in liver ([6]; 12 weeks of treatment): ≤ 75%
% Inhibition, human apolipoprotein B mRNA ([6]; 10 mg/kg i.p. twice a week): 65%
% Inhibition, human apolipoprotein B mRNA ([6]; 25 mg/kg i.p. twice a week): 75%
